For the assay, the target named is T1, human GLP-1 receptor (GLP-1R) (Homo sapiens, UniProt P43220).
T1 construct: expressed in transfected cells; host or cells: HEK293 cells or CHO cells
Kind of assay: cAMP assay, human GLP-1R cells. Type of assay: cell-based. The following applies: Table 11, tris-lipidated peptides; mean of n1 and n2; read-out: Primary assay EC50 Mean pM GLP-1R. Put shortly:
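Peptide-stimulated cAMP measured by two-step HTRF after a 30 min room-temperature incubation with receptor-expressing cells (hGLP-1R, hGIPR at 1×10^5 cells/ml; hGCGR at 2×10^5 cells/ml). Duplicate dilutions; EC50 from 4-parameter logistic fit of % Delta F.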
In general terms: Cyclic AMP is a second messenger, typically raised through Gs and lowered through Gi signalling.

This passage reports EC50 results from patent publication US20210221866A1, “PROTEASE-RESISTANT LIPIDATED GLP-1 ANALOGS” (MEDIMMUNE LIMITED, priority 2015, published 2021).

Each structure is given as a SMILES string. Numbered stars: 1 amine (or outer) side, 2 acyl side, 3 side chain; on linkers, the order of the positions; unused ones are H or OH. Square brackets hold non-standard residues; d marks the D form. Side chains are listed from the residue outwards. Peptide text beside a SMILES is read from it. * marks the point of attachment. γGlu = O=C(O)[C@H](CCC(=O)[*:2])N[*:1]; αMeF = C[C@](N)(Cc1ccccc1)C(=O)O; αMeK = C[C@](N)(CCCCN)C(=O)O; Lauroyl = CCCCCCCCCCCC(=O)*; αMeS = C[C@](N)(CO)C(=O)O; AEEA = NCCOCCOCC(=O)O; Aib = CC(C)(N)C(=O)O

T1 sequence (P43220 24-463): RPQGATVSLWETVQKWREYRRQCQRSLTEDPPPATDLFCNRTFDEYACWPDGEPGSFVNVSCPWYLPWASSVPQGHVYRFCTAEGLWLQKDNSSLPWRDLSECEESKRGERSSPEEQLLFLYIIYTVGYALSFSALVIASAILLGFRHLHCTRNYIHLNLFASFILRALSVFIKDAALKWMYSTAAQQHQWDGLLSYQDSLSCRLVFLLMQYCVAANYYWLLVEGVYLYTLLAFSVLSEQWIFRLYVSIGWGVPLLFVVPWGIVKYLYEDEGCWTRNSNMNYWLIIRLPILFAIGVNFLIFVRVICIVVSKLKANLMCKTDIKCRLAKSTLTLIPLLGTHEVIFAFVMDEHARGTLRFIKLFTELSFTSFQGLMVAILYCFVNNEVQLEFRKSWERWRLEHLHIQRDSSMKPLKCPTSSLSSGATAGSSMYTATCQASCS

What is called EC50 is the concentration at which the effect is half-maximal. Take `CCCCCCCCCCCC(=O)N[C@@H](CCC(=O)NCCOCCOCC(=O)NCCOCCOCC(=O)NCCCC[C@H](NC(=O)[C@H](CCC(=O)O)NC(=O)CNC(=O)[C@H](CCC(=O)O)NC(=O)[C@H](CC(C)C)NC(=O)[C@H](CCCCNC(=O)COCCOCCNC(=O)COCCOCCNC(=O)CC[C@H](NC(=O)CCCCCCCCCCC)C(=O)O)NC(=O)[C@H](CO)NC(=O)[C@](C)(CO)NC(=O)[C@@H](NC(=O)[C@H](CC(=O)O)NC(=O)[C@H](CO)NC(=O)[C@@H](NC(=O)[C@](C)(Cc1ccccc1)NC(=O)[C@H](CO)NC(=O)CNC(=O)[C@H](CCC(=O)O)NC(=O)C(C)(C)NC(=O)[C@@H](N)Cc1c[nH]cn1)[C@@H](C)O)C(C)C)C(=O)N[C@@H](C)C(=O)N[C@@](C)(CCCCN)C(=O)N[C@@H](CCC(=O)O)C(=O)N[C@@H](Cc1ccccc1)C(=O)N[C@H](C(=O)N[C@@H](C)C(=O)N[C@@H](Cc1ccccc1)C(=O)N[C@@H](CCCCNC(=O)COCCOCCNC(=O)COCCOCCNC(=O)CC[C@H](NC(=O)CCCCCCCCCCC)C(=O)O)C(=O)N[C@H](C(=O)N[C@@H](CCC(=O)O)C(=O)NCC(=O)NCC(N)=O)C(C)C)[C@@H](C)CC)C(=O)O` [compound 481] (H-H[Aib]EGS[αMeF]TSDV[αMeS]SK([AEEA-AEEA-γGlu-Lauroyl])LEGEK([AEEA-AEEA-γGlu-Lauroyl])A[αMeK]EFIAFK([AEEA-AEEA-γGlu-Lauroyl])VEGG-NH2): the EC50 is 143 pM.
